# Experimental data taken from ChEMBL document CHEMBL1154519, “Synthesis of novel di- and tricationic carbapenems with potent anti-MRSA activity” (Bioorg Med Chem Lett, 2009).
# Legend:
# Staphylococcus aureus [1] = experiment: Antibacterial activity against methicillin-resistant Staphylococcus aureus M-126; type: functional
# Staphylococcus aureus [2] = experiment: Antibacterial activity against carbapenem-resistant Staphylococcus aureus M-126HR; type: functional
# Staphylococcus aureus [3] = experiment: Antibacterial activity against methicillin-resistant Staphylococcus aureus 209P JC1; type: functional
# Staphylococcus aureus [4] = experiment: Antibacterial activity against methicillin-resistant Staphylococcus aureus; type: functional
# [5] = Solubility in water at 5 mg/mL; type: physicochemical
Structure (SMILES),MIC (Staphylococcus aureus [1]) [µg/mL],MIC (Staphylococcus aureus [2]) [µg/mL],MIC (Staphylococcus aureus [3]) [µg/mL],MIC50 (Staphylococcus aureus [4]) [µg/mL],MIC90 (Staphylococcus aureus [4]) [µg/mL],solubility [5] [mg/mL]
CSc1c2sc(C3=C(C(=O)O)N4C(=O)[C@H]([C@@H](C)O)[C@H]4[C@H]3C)cn2c[n+]1Cc1cccc(C[N+]23CC[N+](CCO)(CC2)CC3)c1.[Br-].[I-].[I-],0.78,1.56,< 0.006,,,
CSc1c2sc(C3=C(C(=O)[O-])N4C(=O)[C@H]([C@@H](C)O)[C@H]4[C@H]3C)cn2c[n+]1Cc1cccc(N)c1,0.78,3.13,< 0.006,,,
CSc1c2sc(C3=C(C(=O)O)N4C(=O)[C@H]([C@@H](C)O)[C@H]4[C@H]3C)cn2c[n+]1Cc1cccc(C[n+]2cc3sccn3c2)c1.[Br-].[Br-],0.78,1.56,< 0.006,,,
CSc1c2sc(C3=C(C(=O)O)N4C(=O)[C@H]([C@@H](C)O)[C@H]4[C@H]3C)cn2c[n+]1Cc1ccc(C[n+]2ccccc2)cc1.[Br-].[Br-],0.78,1.56,< 0.006,,,
CSc1c2sc(C3=C(C(=O)O)N4C(=O)[C@H]([C@@H](C)O)[C@H]4[C@H]3C)cn2c[n+]1Cc1cccc(C[N+]2(C)CCCC2)c1.[Br-].[Br-],0.78,3.13,< 0.006,,,
CSc1c2sc(C3=C(C(=O)[O-])N4C(=O)[C@H]([C@@H](C)O)[C@H]4[C@H]3C)cn2c[n+]1Cc1ccccc1,0.39,1.56,< 0.006,,,
CSc1c2sc(C3=C(C(=O)O)N4C(=O)[C@H]([C@@H](C)O)[C@H]4[C@H]3C)cn2c[n+]1Cc1ccc(C[N+]2(C)CCOCC2)cc1.[Br-].[Br-],1.56,3.13,< 0.006,,,
CSc1c2sc(C3=C(C(=O)O)N4C(=O)[C@H]([C@@H](C)O)[C@H]4[C@H]3C)cn2c[n+]1Cc1cccc(C[n+]2ccccc2)c1.[Br-].[Br-],0.78,1.56,< 0.006,,,
CSc1c2sc(C3=C(C(=O)O)N4C(=O)[C@H]([C@@H](C)O)[C@H]4[C@H]3C)cn2c[n+]1Cc1cccc(C[N+]23CC[N+](C)(CC2)CC3)c1.[I-].[I-].[I-],0.78,1.56,< 0.006,,,
CSc1c2sc(C3=C(C(=O)[O-])N4C(=O)[C@H]([C@@H](C)O)[C@H]4[C@H]3C)cn2c[n+]1Cc1ccc(C#N)cc1,0.78,3.13,< 0.006,,,
CCN(CC)C(=O)c1ccc(C[n+]2cn3cc(C4=C(C(=O)[O-])N5C(=O)[C@H]([C@@H](C)O)[C@H]5[C@H]4C)sc3c2SC)cc1,1.56,6.25,0.013,,,
CSc1c2sc(C3=C(C(=O)[O-])N4C(=O)[C@H]([C@@H](C)O)[C@H]4[C@H]3C)cn2c[n+]1Cc1cccc(O)c1,0.39,1.56,< 0.006,,,
CSc1c2sc(C3=C(C(=O)[O-])N4C(=O)[C@H]([C@@H](C)O)[C@H]4[C@H]3C)cn2c[n+]1Cc1ccc(C(=O)O)cc1,3.13,12.5,0.025,,,
CSc1c2sc(C3=C(C(=O)O)N4C(=O)[C@H]([C@@H](C)O)[C@H]4[C@H]3C)cn2c[n+]1Cc1ccccc1C[n+]1ccccc1.[Br-].[Br-],1.56,3.13,< 0.006,,,
CSc1c2sc(C3=C(C(=O)[O-])N4C(=O)[C@H]([C@@H](C)O)[C@H]4[C@H]3C)cn2c[n+]1CC(N)=O,1.56,3.13,< 0.006,,,
C[C@@H](O)[C@H]1C(=O)N2C(C(=O)O)=C(SCCNC=N)C[C@H]12 [IMIPENEM ANHYDROUS],25,100,0.013,,,
CSc1c2sc(C3=C(C(=O)O)N4C(=O)[C@H]([C@@H](C)O)[C@H]4[C@H]3C)cn2c[n+]1Cc1cccc(C[n+]2ccc3ccccc3c2)c1.[Br-].[Br-],0.78,1.56,< 0.006,,,
CSc1c2sc(C3=C(C(=O)O)N4C(=O)[C@H]([C@@H](C)O)[C@H]4[C@H]3C)cn2c[n+]1Cc1cccc(C[n+]2ccsc2)c1.[Br-].[Br-],0.78,3.13,< 0.006,,,
CSc1c2sc(C3=C(C(=O)[O-])N4C(=O)[C@H]([C@@H](C)O)[C@H]4[C@H]3C)cn2c[n+]1Cc1ccc(Cl)cc1,0.78,1.56,< 0.006,,,
COc1cccc(C[n+]2cn3cc(C4=C(C(=O)[O-])N5C(=O)[C@H]([C@@H](C)O)[C@H]5[C@H]4C)sc3c2SC)c1,0.78,1.56,< 0.006,,,
CN[C@H](CC(C)C)C(=O)N[C@H]1C(=O)N[C@@H](CC(N)=O)C(=O)N[C@H]2C(=O)N[C@H]3C(=O)N[C@H](C(=O)N[C@H](C(=O)O)c4cc(O)cc(O)c4-c4cc3ccc4O)[C@H](O)c3ccc(c(Cl)c3)Oc3cc2cc(c3O[C@@H]2O[C@H](CO)[C@@H](O)[C@H](O)[C@H]2O[C@H]2C[C@](C)(N)[C@H](O)[C@H](C)O2)Oc2ccc(cc2Cl)[C@H]1O [VANCOMYCIN],1.56,1.56,0.78,1.56,1.56,
CSc1c2sc(C3=C(C(=O)O)N4C(=O)[C@H]([C@@H](C)O)[C@H]4[C@H]3C)cn2c[n+]1Cc1cccc(C[N+]2(C)CCOCC2)c1.[Br-].[Br-],0.78,3.13,< 0.006,,,
CSc1c2sc(C3=C(C(=O)O)N4C(=O)[C@H]([C@@H](C)O)[C@H]4[C@H]3C)cn2c[n+]1Cc1cccc(C[n+]2cccc(C(N)=O)c2)c1.[Br-].[Br-],0.39,1.56,< 0.006,,,
CSc1c2sc(C3=C(C(=O)O)N4C(=O)[C@H]([C@@H](C)O)[C@H]4[C@H]3C)cn2c[n+]1Cc1cccc(C[N+]23CC[N+](CC(N)=O)(CC2)CC3)c1.[Br-].[I-].[I-],0.78,1.56,< 0.006,,,
CSc1c2sc(C3=C(C(=O)O)N4C(=O)[C@H]([C@@H](C)O)[C@H]4[C@H]3C)cn2c[n+]1Cc1ccccc1C[N+]1(C)CCOCC1.[Br-].[Br-],1.56,3.13,< 0.006,,,
CSc1c2sc(C3=C(C(=O)O)N4C(=O)[C@H]([C@@H](C)O)[C@H]4[C@H]3C)cn2c[n+]1Cc1cccc(C[N+]23CC[N+](CCCN)(CC2)CC3)c1.[I-].[I-].[I-],0.39,0.78,< 0.006,0.39,0.78,20
